The source made the active and inactive calls. No cut-off for these calls is given here.
Assays:
RAW264.7 [1] = experiment: Cytotoxicity against mouse RAW264.7 cells assessed as cell viability at 40 uM measured after 24 hrs by MTT assay; format: toxicity, cell-based; conditions: raw264.7, 24 h
RAW264.7 [2] = experiment: Antiinflammatory activity in LPS-induced mouse RAW264.7 cells assessed as inhibition of TNF-alpha level at 20 uM incubated for 24 hrs by ELISA method relative to control; format: functional
RAW264.7 [3] = experiment: Antiinflammatory activity in LPS-induced mouse RAW264.7 cells assessed as inhibition of IL-6 level at 20 uM incubated for 24 hrs by ELISA method relative to control; format: functional
[4] = Cmax in BALB/c mouse at 10 mg/kg, po measured upto 24 hrs by LC/MS-MS analysis; format: ADME, organism-based; conditions: in vivo
[5] = Tmax in BALB/c mouse at 10 mg/kg, po measured upto 24 hrs by LC/MS-MS analysis; format: ADME, organism-based; conditions: in vivo
[6] = Half life in BALB/c mouse at 10 mg/kg, po measured upto 24 hrs by LC/MS-MS analysis; format: ADME, organism-based; conditions: in vivo
[7] = AUC (0 to t) in BALB/c mouse at 10 mg/kg, po measured upto 24 hrs by LC/MS-MS analysis; format: ADME, organism-based; conditions: in vivo
[8] = AUC (0 to infinity) in BALB/c mouse at 10 mg/kg, po measured upto 24 hrs by LC/MS-MS analysis; format: ADME, organism-based; conditions: in vivo
[9] = Toxicity in BALB/c mouse assessed as histopathological lesions in liver at 10 mg/kg, po by H and E staining based analysis; format: organism-based; conditions: in vivo
[10] = Toxicity in BALB/c mouse assessed as histopathological lesions in kidney at 10 mg/kg, po by H and E staining based analysis; format: organism-based; conditions: in vivo
[11] = Toxicity in BALB/c mouse assessed as change in AST level in serum at 10 mg/kg, po; format: organism-based; conditions: in vivo
[12] = Toxicity in BALB/c mouse assessed as change in ALT level in serum at 10 mg/kg, po; format: organism-based; conditions: in vivo
[13] = Toxicity in BALB/c mouse assessed as change in SOD level in serum at 10 mg/kg, po; format: organism-based; conditions: in vivo
[14] = Toxicity in BALB/c mouse assessed as change in BUN level in serum at 10 mg/kg, po; format: organism-based; conditions: in vivo
[15] = Toxicity in BALB/c mouse assessed as change in SCr level in serum at 10 mg/kg, po; format: organism-based; conditions: in vivo
RAW264.7 [16] = experiment: Antiinflammatory activity in LPS-induced mouse RAW264.7 cells assessed as reduction in TNF-alpha release incubated for 24 hrs by ELISA method; format: functional, cell-based; conditions: dose 2.5-10 µM
RAW264.7 [17] = experiment: Antiinflammatory activity in LPS-induced mouse RAW264.7 cells assessed as reduction in IL-6 release incubated for 24 hrs by ELISA method; format: functional, cell-based; conditions: dose 2.5-10 µM
[18] = Toxicity in BALB/c mouse assessed as liver lesions at 2.5 to 10 mg/kg, iv administered for 2 hrs and measured after 12 hrs by H and E staining based assay; format: organism-based; conditions: in vivo, 14 h, dose 2.5-10 mg/kg
[19] = Toxicity in BALB/c mouse assessed as lung lesions at 2.5 to 10 mg/kg, iv administered for 2 hrs and measured after 12 hrs by H and E staining based assay; format: organism-based; conditions: in vivo, 14 h, dose 2.5-10 mg/kg
[20] = Toxicity in BALB/c mouse assessed as kidney lesions at 2.5 to 10 mg/kg, iv administered for 2 hrs and measured after 12 hrs by H and E staining based assay; format: organism-based; conditions: in vivo, 14 h, dose 2.5-10 mg/kg
Mus musculus [21] = experiment: Antiinflammatory activity in LPS-induced BALB/c sepsis mouse model assessed as decrease in serum AST level at 2.5 to 10 mg/kg, iv administered for 2 hrs and measured after 12 hrs; format: functional, organism-based; conditions: dose 2.5-10 mg/kg, time 14.0 hrs
Mus musculus [22] = experiment: Antiinflammatory activity in LPS-induced BALB/c sepsis mouse model assessed as decrease in serum ALT level at 2.5 to 10 mg/kg, iv administered for 2 hrs and measured after 12 hrs; format: functional, organism-based; conditions: dose 2.5-10 mg/kg, time 14.0 hrs
Mus musculus [23] = experiment: Antiinflammatory activity in LPS-induced BALB/c sepsis mouse model assessed as decrease in serum SOD level at 2.5 to 10 mg/kg, iv administered for 2 hrs and measured after 12 hrs; format: functional, organism-based; conditions: dose 2.5-10 mg/kg, time 14.0 hrs
Mus musculus [24] = experiment: Antiinflammatory activity in LPS-induced BALB/c sepsis mouse model assessed as decrease in serum MDA level at 2.5 to 10 mg/kg, iv administered for 2 hrs and measured after 12 hrs; format: functional, organism-based; conditions: dose 2.5-10 mg/kg, time 14.0 hrs
Mus musculus [25] = experiment: Antiinflammatory activity in LPS-induced BALB/c sepsis mouse model assessed as decrease in serum BUN level at 2.5 to 10 mg/kg, iv administered for 2 hrs and measured after 12 hrs; format: functional, organism-based; conditions: dose 2.5-10 mg/kg, time 14.0 hrs
Mus musculus [26] = experiment: Antiinflammatory activity in LPS-induced BALB/c sepsis mouse model assessed as decrease in serum SCr level at 2.5 to 10 mg/kg, iv administered for 2 hrs and measured after 12 hrs; format: functional, organism-based; conditions: dose 2.5-10 mg/kg, time 14.0 hrs
Mus musculus [27] = experiment: Antiinflammatory activity in LPS-induced BALB/c sepsis mouse model assessed as reduction in IL-6 level in serum at 2.5 to 10 mg/kg, iv administered for 2 hrs and measured after 12 hrs by ELISA analysis; format: functional, organism-based; conditions: dose 2.5-10 mg/kg, time 14.0 hrs
Mus musculus [28] = experiment: Antiinflammatory activity in LPS-induced BALB/c sepsis mouse model assessed as reduction in TNF-alpha level in serum at 2.5 to 10 mg/kg, iv administered for 2 hrs and measured after 12 hrs by ELISA analysis; format: functional, organism-based; conditions: dose 2.5-10 mg/kg, time 14.0 hrs
[29] = Toxicity in BALB/c mouse assessed as increase in survival rate at 10 mg/kg, po administered for 3 days; format: organism-based; conditions: in vivo, 72 h, time 3 day
[30] = Toxicity in BALB/c mouse assessed as change in body weight at 10 mg/kg, po administered for 3 days; format: organism-based; conditions: in vivo, 72 h, time 3 day
RAW264.7 [31] = experiment: Antiinflammatory activity in LPS-induced mouse RAW264.7 cells assessed as reduction in TAK1-TAB1 complex formation incubated for 2 hrs vy immunoprecipitation analysis; format: functional, cell-based
[32] = Toxicity in BALB/c mouse assessed as pathological damage in liver at 10 mg/kg, po administered for 2 hrs by H and E staining based analysis; format: organism-based; conditions: in vivo
[33] = Toxicity in BALB/c mouse assessed as pathological damage in heart at 10 mg/kg, po administered for 2 hrs by H and E staining based analysis; format: organism-based; conditions: in vivo
[34] = Toxicity in BALB/c mouse assessed as pathological damage in spleen at 10 mg/kg, po administered for 2 hrs by H and E staining based analysis; format: organism-based; conditions: in vivo
[35] = Toxicity in BALB/c mouse assessed as pathological damage in lung at 10 mg/kg, po administered for 2 hrs by H and E staining based analysis; format: organism-based; conditions: in vivo
[36] = Toxicity in BALB/c mouse assessed as pathological damage in kidney at 10 mg/kg, po administered for 2 hrs by H and E staining based analysis; format: organism-based; conditions: in vivo
[37] = Toxicity in BALB/c mouse assessed as animal survival at 750 mg/kg, po administered for 2 hrs; format: organism-based; conditions: in vivo
[38] = Toxicity in BALB/c mouse assessed as animal survival at 500 mg/kg, po administered for 2 hrs; format: organism-based; conditions: in vivo
[39] = Toxicity in BALB/c mouse assessed as histopathological lesions in lung at 10 mg/kg, po in presence of 4a-benzyl-12-ethyl-(6aS,6bR,9R,13aR)-9-(hydroxymethyl)-2,2,6a,6b,9,13a-hexamethyl-1,3,4,5,6,6a,6b,7,8,8a,9,13,13a,13b,14,15b-hexadecahydropiceno[2,3-d]isoxazole-4a,12(2H)-dicarboxylate by H and E staining based analysis; format: organism-based; conditions: in vivo
[40] = Toxicity in BALB/c mouse assessed as histopathological lesions in liver at 10 mg/kg, po in presence of 4a-benzyl-12-ethyl-(6aS,6bR,9R,13aR)-9-(hydroxymethyl)-2,2,6a,6b,9,13a-hexamethyl-1,3,4,5,6,6a,6b,7,8,8a,9,13,13a,13b,14,15b-hexadecahydropiceno[2,3-d]isoxazole-4a,12(2H)-dicarboxylate by H and E staining based analysis; format: organism-based; conditions: in vivo
[41] = Toxicity in BALB/c mouse assessed as histopathological lesions in kidney at 10 mg/kg, po in presence of 4a-benzyl-12-ethyl-(6aS,6bR,9R,13aR)-9-(hydroxymethyl)-2,2,6a,6b,9,13a-hexamethyl-1,3,4,5,6,6a,6b,7,8,8a,9,13,13a,13b,14,15b-hexadecahydropiceno[2,3-d]isoxazole-4a,12(2H)-dicarboxylate by H and E staining based analysis; format: organism-based; conditions: in vivo
[42] = Toxicity in BALB/c mouse assessed as change in MDA level in serum at 10 mg/kg, po; format: organism-based; conditions: in vivo

**Q.** Which results are given for `CCOC(=O)c1noc2c1C[C@@]1(C)[C@@H](CC[C@]3(C)[C@@H]1CC=C1[C@@H]4CC(C)(C)CC[C@]4(C(=O)OCc4ccccc4)CC[C@]13C)[C@]2(C)CO`?
**A.** Activity (RAW264.7 [1]): Non-toxic; inhibition at 20 µM (RAW264.7 [2]): 52.4%; inhibition at 20 µM (RAW264.7 [3]): 32.5%; Cmax [4]: 3930 ng/mL; Tmax [5]: 4 h; half-life [6]: 4.85 h; AUC(0-t) at 24 h [7]: 22700 ng·h/mL; AUC(0-inf) [8]: 23400 ng·h/mL; Activity [9]: Non-toxic; Activity [10]: Non-toxic; Activity [11]: Non-toxic; Activity [12]: Non-toxic; Activity [13]: Non-toxic; Activity [14]: Non-toxic; Activity [15]: Non-toxic

**Q.** With `CCOC(=O)c1noc2c1C[C@@]1(C)[C@@H](CC[C@]3(C)[C@@H]1CC=C1[C@@H]4CC(C)(C)CC[C@]4(C(=O)OCc4ccccc4)CC[C@]13C)[C@]2(C)COC(=O)CCC(=O)N1CCOCC1` as the molecule, how does the Activity (RAW264.7 [1]) read?
**A.** The Activity was “Non-toxic”.

**Q.** And the inhibition at 20 µM (RAW264.7 [2])?
**A.** The inhibition at 20 µM was 80%.

**Q.** What about the inhibition at 20 µM (RAW264.7 [3]) of the same molecule?
**A.** Its inhibition at 20 µM is 69.6%.

**Q.** And the Activity (RAW264.7 [16])?
**A.** Its Activity is “Dose-dependent-effect”.

**Q.** What about the Activity (RAW264.7 [17]) of the same molecule?
**A.** The Activity was “Dose-dependent-effect”.

**Q.** And the Activity [18]?
**A.** The Activity was “Non-toxic”.

**Q.** What about the Activity [19] of the same molecule?
**A.** The Activity was “Non-toxic”.

**Q.** What about the Activity [20] of the same molecule?
**A.** The Activity was “Non-toxic”.

**Q.** What about the Activity (Mus musculus [21]) of the same molecule?
**A.** Its Activity is “Active”.

**Q.** And the Activity (Mus musculus [22])?
**A.** The Activity was “Active”.

**Q.** And the Activity (Mus musculus [23])?
**A.** Its Activity is “Active”.

**Q.** What about the Activity (Mus musculus [24]) of the same molecule?
**A.** The Activity was “Active”.

**Q.** What about the Activity (Mus musculus [25]) of the same molecule?
**A.** Its Activity is “Active”.

**Q.** What about the Activity (Mus musculus [26]) of the same molecule?
**A.** The Activity was “Active”.

**Q.** What about the Activity (Mus musculus [27]) of the same molecule?
**A.** The Activity was “Active”.

**Q.** And the Activity (Mus musculus [28])?
**A.** Its Activity is “Active”.

**Q.** What about the Activity [29] of the same molecule?
**A.** The Activity was “Non-toxic”.

**Q.** What about the Activity [30] of the same molecule?
**A.** The Activity was “Non-toxic”.

**Q.** What about the Activity (RAW264.7 [31]) of the same molecule?
**A.** The Activity was “Active”.

**Q.** What about the Activity [32] of the same molecule?
**A.** The Activity was “Non-toxic”.

**Q.** What about the Activity [33] of the same molecule?
**A.** Its Activity is “Non-toxic”.

**Q.** What about the Activity [34] of the same molecule?
**A.** Its Activity is “Non-toxic”.

**Q.** And the Activity [35]?
**A.** Its Activity is “Non-toxic”.

**Q.** And the Activity [36]?
**A.** The Activity was “Non-toxic”.

**Q.** And the Activity [37]?
**A.** Its Activity is “Toxic”.

**Q.** And the Activity [38]?
**A.** Its Activity is “Non-toxic”.

**Q.** What about the Cmax [4] of the same molecule?
**A.** Its Cmax is 2760 ng/mL.

**Q.** What about the Tmax [5] of the same molecule?
**A.** Its Tmax is 2.25 h.

**Q.** And the half-life [6]?
**A.** The half-life was 5.42 h.

**Q.** And the AUC(0-t) at 24 h [7]?
**A.** The AUC(0-t) at 24 h was 9620 ng·h/mL.

**Q.** What about the AUC(0-inf) [8] of the same molecule?
**A.** The AUC(0-inf) was 9970 ng·h/mL.

**Q.** And the Activity [39]?
**A.** Its Activity is “Non-toxic”.

**Q.** And the Activity [40]?
**A.** The Activity was “Non-toxic”.

**Q.** What about the Activity [41] of the same molecule?
**A.** Its Activity is “Non-toxic”.

**Q.** What about the Activity [42] of the same molecule?
**A.** The Activity was “Non-toxic”.
